The values that follow come from article PMC9866630, “Synthesis, Biological Evaluation and Molecular Modeling Studies of Naphthoquinone Sulfonamides and Sulfonate Ester Derivatives as P2X7 Inhibitors” (Molecules, 2023).

One series has as its system P2X7R. Further details: method as in PMID 24314880. As to conditions: read-out: EC50 for P2X7R activation; cited from earlier work.
A further series addresses T1, P2X7 receptor (Mus musculus, UniProt Q9Z1M0).
T1 construct: P2X7 receptor expressed in peritoneal macrophages; endogenous in cells; host or cells: mouse peritoneal macrophages (primary)
T1 sequence (Q9Z1M0 1-595): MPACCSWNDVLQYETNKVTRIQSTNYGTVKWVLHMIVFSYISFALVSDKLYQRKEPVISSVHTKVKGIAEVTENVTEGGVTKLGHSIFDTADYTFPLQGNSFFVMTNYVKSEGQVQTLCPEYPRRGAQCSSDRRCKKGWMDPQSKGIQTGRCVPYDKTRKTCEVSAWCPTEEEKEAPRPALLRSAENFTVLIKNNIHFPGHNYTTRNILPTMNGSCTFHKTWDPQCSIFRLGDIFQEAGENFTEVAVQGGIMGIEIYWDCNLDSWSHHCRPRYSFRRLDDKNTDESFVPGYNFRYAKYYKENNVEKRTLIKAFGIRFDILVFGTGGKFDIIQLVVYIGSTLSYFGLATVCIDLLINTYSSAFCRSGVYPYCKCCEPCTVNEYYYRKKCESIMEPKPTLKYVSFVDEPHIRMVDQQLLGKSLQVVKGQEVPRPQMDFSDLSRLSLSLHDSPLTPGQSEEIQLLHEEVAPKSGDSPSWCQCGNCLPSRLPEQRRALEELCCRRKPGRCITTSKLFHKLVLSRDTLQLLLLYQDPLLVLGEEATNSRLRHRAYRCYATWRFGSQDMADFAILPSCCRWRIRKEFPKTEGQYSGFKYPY
As to the kind of experiment: ATP-induced propidium iodide dye uptake assay (P2X7R-associated pore formation). The class given is cell-based. Particulars: pretreatment 10 min, 5 mM ATP 15 min, peritoneal macrophages; for Inhibition of ATP-induced PI uptake / inhibition at 10 µM: 10 µM; for inhibition at 10 µM: P2X7, read-out: Inhibition of ATP-induced PI uptake; for IC50: read-out: IC50 ATP-induced PI uptake. The procedure: (§1) The animals used in these experiments were furnished by the animal breeding unit at Pavilion Hélio and Peggy Pereira at FIOCRUZ/IOC. The Institutional Animal Ethics Committee approved all experimental protocols under number L039-2016. Peritoneal macrophages were isolated from euthanized mice (weighing between 20 and 30 g) by injection of 10 mL phosphate-buffered saline (PBS) into the peritoneum of each animal. Then, the solution was completely removed from the peritoneal cavity using a syringe and transferred to 50 mL sterile tubes. Tubes were centrifuged at 1500 rpm for 5 min. The supernatant was discarded, and the pellet was resuspended in RPMI medium supplemented with 10% SFB and 1% antibiotic. The cells were counted and seeded in plates. After 40 min, the supernatant from each well was discarded to remove cells other than macrophages, and then RPMI medium was added. The macrophages were maintained in RPMI medium supplemented with 10% SFB and 1% antibiotic in a humid atmosphere at 37 °C containing 5% CO2 during the experiments.
To evaluate P2X7R-associated pore formation, a propidium iodide (PI) uptake assay was used. Peritoneal macrophages (3.0 × 10^5/well) were incubated with naphthoquinone derivatives and the inhibitor BBG (Brilliant Blue G, Sigma-Aldrich) at 10 µM and 750 nM, respectively, for 10 min. Subsequently, cells were exposed to 5 mM ATP for 15 min, and in the last 5 min, they were incubated with 1 µM PI dye. At the end of the incubation period, fluorescence was measured using a SpectraMax M5 spectrophotometer at 493/636 nm (excitation/emission). Compounds with inhibition values higher than 50% were selected to evaluate their inhibitory activity at varying concentrations. The inhibition curve was obtained using compounds at concentrations of 0.01 µM, 1 µM, 10 µM, 50 µM, and 100 µM. The controls and the procedure were the same.

A further series deals with mouse peritoneal cells. Put plainly: LDH release cytotoxicity assay. Particulars: 24 h, increasing concentrations. The series is classed as cell-based. The procedure:
as §1
Peritoneal macrophages (3.0 × 10^5 cells/well) were grown in 96-well plates and kept in an oven at 37 °C under a 5% CO2 atmosphere. […] The assay was finished by the addition of the LDH kit’s reagent (Kit CytoTox 96® Non-Radioactive Cytotoxicity Assay, Promega, Madison, WI, USA), prepared according to the manufacturer’s instructions. After 30 min of reaction, a stop solution was added, and the absorbance was measured at 490 nm.
A general note: Release of lactate dehydrogenase indicates damage to the cell membrane.

The next series deals with T2, mP2X7R (Mus musculus, UniProt Q9Z1M0).
T2 construct: P2X7 receptor expressed in peritoneal macrophages; endogenous in cells; host or cells: mouse peritoneal macrophages (primary)
T2 sequence (Q9Z1M0 1-595): T1 sequence (Q9Z1M0 1-595)
As to the kind of experiment: ATP-induced IL-1β release ELISA in mouse peritoneal macrophages. The class given is cell-based. Particulars: LPS priming, ATP 30 min. On the procedure:
(§2) The monocytic THP-1 cell line used in this experiment was donated by the Laboratory of Applied Pharmacology, Institute of Drug Technology (Farmanguinhos), Rio de Janeiro, Brazil. Cells were plated at 2 × 10^5 cells/well in 96-well culture plates maintained in RPMI containing 10% fetal bovine serum (FBS), penicillin (100 U/mL), and streptomycin ([…]) in a humidified 5% CO2 atmosphere at 37 °C. Then, the cells were primed with Escherichia coli lipopolysaccharide (LPS, serotype 0127: B8) four hours before ATP stimulation for 30 min. Mouse peritoneal macrophages were primed with 10 ng/mL interferon-γ (IFN-γ) for 24 h and posteriorly stimulated with Escherichia coli lipopolysaccharide (LPS, serotype 0127: B8). The P2X7R antagonist A740003 and naphthoquinone derivatives were preincubated for 30 min before ATP addition. IL-1β was determined according to a standard kit (Bioscience, San Diego, CA, USA and Abcam, Cambridge Biomedical Campus, Cambridge, UK).
(ELISA stands for enzyme-linked immunosorbent assay.)

In another series the target is T3, hP2X7R (Homo sapiens, UniProt Q99572).
T3 construct: The monocytic THP-1 cell line used in this experiment was donated; endogenous in cells; host or cells: THP-1 human monocytic cell line
T3 sequence (Q99572 1-595): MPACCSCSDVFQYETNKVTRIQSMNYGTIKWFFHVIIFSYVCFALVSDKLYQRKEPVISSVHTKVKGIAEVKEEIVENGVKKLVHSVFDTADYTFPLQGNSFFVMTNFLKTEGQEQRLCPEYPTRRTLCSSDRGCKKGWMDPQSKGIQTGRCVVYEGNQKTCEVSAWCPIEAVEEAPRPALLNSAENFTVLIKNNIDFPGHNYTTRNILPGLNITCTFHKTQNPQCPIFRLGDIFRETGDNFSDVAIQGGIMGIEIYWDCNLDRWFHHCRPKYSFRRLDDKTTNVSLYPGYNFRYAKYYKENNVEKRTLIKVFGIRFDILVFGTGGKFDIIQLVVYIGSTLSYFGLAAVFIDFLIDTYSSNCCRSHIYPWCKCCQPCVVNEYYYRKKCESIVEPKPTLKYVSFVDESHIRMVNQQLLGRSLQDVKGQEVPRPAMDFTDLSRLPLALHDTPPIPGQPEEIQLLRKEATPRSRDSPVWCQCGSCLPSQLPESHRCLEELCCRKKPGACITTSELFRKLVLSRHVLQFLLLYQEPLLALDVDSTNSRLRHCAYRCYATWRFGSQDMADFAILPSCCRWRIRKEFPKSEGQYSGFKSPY
Put plainly: ATP-induced IL-1β release ELISA in THP-1 cells. The series is classed as cell-based. As to conditions: human THP-1 cells, LPS 4 h, ATP 30 min. The procedure:
as §2

The next series deals with ATP-induced paw edema. As to the kind of experiment: ATP-induced paw edema assay. The class given is in vivo, Swiss Webster mice. Particulars: mice, intraperitoneal pretreatment, intra-plantar ATP, edema measured 30 min after ATP. The procedure:
Paw edema in mice was induced by intra-plantar administration of ATP (10 mg/paw) for 30 min. Animals were pretreated intraperitoneally with the standard P2X7R antagonist A740003 (1 mg/kg) and the selected compounds PS01, PS02, PS03, PS09, and PS10 (1 mg/kg) for 60 min before ATP administration. Edema formation was determined with a mouse plethysmometer (UGO Basile, Gemonio, Italy) before ATP injection compared with saline injection in the contralateral paw edema.

Bounds are passed on as bounds.

As a reminder, the EC50 is the concentration that produces a half-maximal response. Take `Nc1ncnc2c1ncn2[C@@H]1O[C@H](COP(=O)(O)OP(=O)(O)OP(=O)(O)O)[C@@H](O)[C@H]1O` [ATP, Adenosine triphosphate]: the EC50 in the series with P2X7R was more than 100000 nM.

For `O=C1C(Cl)=C(Nc2ccc(NS(=O)(=O)c3ccc(F)cc3)cc2)C(=O)c2ccccc21` [PS08], on P2X7 receptor, the “Inhibition of ATP-induced PI uptake” value was “did not show inhibitory effects”.

On to `O=C1C=C(Nc2ccc(NS(=O)(=O)c3ccc4ccccc4c3)cc2)C(=O)c2ccccc21` [PS04], for which the “Inhibition of ATP-induced PI uptake” value at P2X7 receptor is given as “did not show inhibitory effects”.

The term inhibition denotes the percentage by which the read-out fell short of the control. What is called IC50 is the midpoint of a concentration-inhibition curve. In the case of `O=C1C=C(Nc2ccc(NS(=O)(=O)c3ccc(F)cc3)cc2)C(=O)c2ccccc21` [PS02], the inhibition at 10 µM on P2X7 receptor was more than 50%. The IC50 on P2X7 receptor was 300 ± 3 nM; at mP2X7R, 3 ± 0.2 µM; against hP2X7R it was 3 ± 0.3 µM. The “IC50 values (CC50), LDH activity” value with mouse peritoneal cells stood at 298000 ± 16000 nM. Further, in the series with ATP-induced paw edema, the “ID50 ATP−induced edema formation” value is 0.093 ± 0.008 µg/kg.

`CCOc1ccc(Nc2ccc(/C(=C3C=C/C(=[N+](/CC)Cc4cccc(S(=O)(=O)[O-])c4)C=C/3C)c3ccc(N(CC)Cc4cccc(S(=O)(=O)O)c4)cc3C)cc2)cc1` [BBG, Brilliant Blue G, reference compound]: the IC50 against mP2X7R was 24 ± 3 µM; on hP2X7R, 16 ± 2 µM.

Take `Cc1ccc(S(=O)(=O)Oc2cccc3c2C(=O)C(N)=CC3=O)cc1` [PS12]: the “Inhibition of ATP-induced PI uptake” value at P2X7 receptor is “did not show inhibitory effects”.

Turning to `O=C1C=C(Nc2ccc(NS(=O)(=O)c3ccccc3)cc2)C(=O)c2ccccc21` [PS01], at P2X7 receptor, the inhibition at 10 µM was more than 50%. Moreover, the IC50 came out at 1000 ± 100 nM on P2X7 receptor, 5 ± 1 µM against mP2X7R and 4 ± 2 µM on hP2X7R. Also, in the series on mouse peritoneal cells, the “IC50 values (CC50), LDH activity” value worked out at 201000 ± 11000 nM. Further, the “ID50 ATP−induced edema formation” value in the series with ATP-induced paw edema was 0.128 ± 0.016 µg/kg.

In the case of `Cc1ccc(S(=O)(=O)Nc2ccc(NC3=CC(=O)c4ccccc4C3=O)cc2)cc1` [PS03], the inhibition at 10 µM on P2X7 receptor was more than 50%. Also, the IC50 at P2X7 receptor was found to be 70 ± 3 nM; on mP2X7R, 1.5 ± 0.4 µM; at hP2X7R, 1 ± 0.4 µM. Moreover, the “IC50 values (CC50), LDH activity” value in the series on mouse peritoneal cells was determined as 322000 ± 20000 nM. In addition, the “ID50 ATP−induced edema formation” value in the series on ATP-induced paw edema stood at 0.067 ± 0.005 µg/kg.

On to `NC1=CC(=O)c2cccc(OS(=O)(=O)c3ccc([N+](=O)[O-])cc3)c2C1=O` [PS15], for which the “Inhibition of ATP-induced PI uptake” value at P2X7 receptor was “did not show inhibitory effects”.

For the molecule `O=C1C(Cl)=C(Nc2ccc(NS(=O)(=O)c3ccccc3)cc2)C(=O)c2ccccc21` [PS06], the “Inhibition of ATP-induced PI uptake” value on P2X7 receptor is listed as “did not show inhibitory effects”.

Regarding `O=C1C(Cl)=C(Nc2ccc(NS(=O)(=O)c3ccc4ccccc4c3)cc2)C(=O)c2ccccc21` [PS09], at P2X7 receptor, the inhibition at 10 µM was more than 50%. In addition, the IC50 is 8 ± 0.1 nM at P2X7 receptor, 0.09 ± 0.01 µM against mP2X7R and 0.02 ± 0.002 µM against hP2X7R. In addition, the “IC50 values (CC50), LDH activity” value in the series on mouse peritoneal cells is 401000 ± 18000 nM. Besides, the “ID50 ATP−induced edema formation” value with ATP-induced paw edema was found to be 0.0098 ± 0.0007 µg/kg.

Regarding `NC1=CC(=O)c2cccc(OS(=O)(=O)c3ccc(F)cc3)c2C1=O` [PS13], the “Inhibition of ATP-induced PI uptake” value on P2X7 receptor is on record as “did not show inhibitory effects”.

Consider `NC1=CC(=O)c2cccc(OS(=O)(=O)c3ccc4ccccc4c3)c2C1=O` [PS14], for which the “Inhibition of ATP-induced PI uptake” value at P2X7 receptor is “did not show inhibitory effects”.

For `NC1=CC(=O)c2cccc(OS(=O)(=O)c3ccccc3)c2C1=O` [PS11], the “Inhibition of ATP-induced PI uptake” value at P2X7 receptor is given as “did not show inhibitory effects”.

`O=C1C(Cl)=C(Nc2ccc(NS(=O)(=O)c3ccc([N+](=O)[O-])cc3)cc2)C(=O)c2ccccc21` [PS10]: the inhibition at 10 µM at P2X7 receptor was more than 50%. Moreover, the IC50 came out at 10 ± 2 nM on P2X7 receptor, 0.7 ± 0.1 µM at mP2X7R and 0.3 ± 0.06 µM against hP2X7R. The “IC50 values (CC50), LDH activity” value with mouse peritoneal cells turned out to be 351000 ± 21000 nM. For the same molecule, the “ID50 ATP−induced edema formation” value with ATP-induced paw edema stood at 0.0136 ± 0.016 µg/kg.

In the case of `Cc1ccc(S(=O)(=O)Nc2ccc(NC3=C(Cl)C(=O)c4ccccc4C3=O)cc2)cc1` [PS07], at P2X7 receptor, the “Inhibition of ATP-induced PI uptake” value is on record as “did not show inhibitory effects”.

`O=C1C=C(Nc2ccc(NS(=O)(=O)c3ccc([N+](=O)[O-])cc3)cc2)C(=O)c2ccccc21` [PS05]: the “Inhibition of ATP-induced PI uptake” value on P2X7 receptor is reported as “did not show inhibitory effects”.

Consider `COc1ccc(CC(=O)NC(N=C(NC#N)Nc2cccc3ncccc23)C(C)(C)C)cc1OC` (stereo not shown) [Compound A740003, reference compound], for which the “Inhibition of ATP-induced PI uptake” value on P2X7 receptor is “inhibited the ATP effect”. Further, the IC50 on mP2X7R worked out at 0.9 ± 0.1 µM; at hP2X7R it was 0.85 ± 0.1 µM.
